Target: mGluR4 (UniProt Q14833)
Test: mGluR4 potentiation assay: increase in response to an EC20 concentration of agonist (species not given)
Assay type: cell-based
Settings: EC50 for potentiation of mGluR4; table does not state human or rat
Outline: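 Human mGluR4 was expressed in CHO cells read with a Ca2+-sensitive dye; rat mGluR4 was co-expressed with GIRK in […] read by thallium flux. Potentiation is the rise over agonist-alone response, with EC50 and maximal potentiation from non-linear fits.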

Row | EC50 [nM] | SMILES
1 | 865 | Cn1nc(C(C)(C)O)c2ccc(Nc3n[nH]c4cccnc34)cc21 [Example 54, 2-(6-((1H-pyrazolo[4,3-b]pyridin-3-yl)amino)-1-methyl-1H-indazol-3-yl)propan-2-ol]
2 | 480 | CCn1nc(C)c2cc(Nc3n[nH]c4cccnc34)cnc21 [Example 258, 1-ethyl-3-methyl-N-(1H-pyrazolo[4,3-b]pyridin-3-yl)pyrazolo[3,4-b]pyridin-5-amine]
3 | > 10000 | Cc1nn(CC2CC2)c2ncc(Nc3n[nH]c4cccnc34)cc12 [Example 257, 1-(cyclopropylmethyl)-3-methyl-N-(1H-pyrazolo[4,3-b]pyridin-3-yl)pyrazolo[3,4-b]pyridin-5-amine]
4 | 801 | Cn1nc(C(=O)N2CCS(=O)(=O)CC2)c2ccc(Nc3n[nH]c4cccnc34)cc21 [Example 165, (1,1-dioxo-1,4-thiazinan-4-yl)-[1-methyl-6-(1H-pyrazolo[4,3-b]pyridin-3-ylamino)indazol-3-yl]methanone]
5 | 757 | Cc1nn(C)c2ccc(Nc3n[nH]c4nccnc34)cc12 [Example 99, N-(1,3-dimethyl-1H-indazol-5-yl)-1H-pyrazolo[3,4-b]pyrazin-3-amine]
6 | 575 | Cc1nn(C(C)(C)C)c2ccc(Nc3n[nH]c4cccnc34)cc12 [Example 97, N-(1-(tert-butyl)-3-methyl-1H-indazol-5-yl)-1H-pyrazolo[4,3-b]pyridin-3-amine]
7 | 526 | CC(C)CC1CC(=O)N(c2nn(C)c3cc(Nc4n[nH]c5cccnc45)ccc23)C1 (stereo not drawn) [Example 36, N-(6-((1H-pyrazolo[4,3-b]pyridin-3-yl)amino)-1-methyl-1H-indazol-3-yl)-4-isobutylpyrrolidin-2-one]
8 | > 10000 | Cc1nn(C2CCCC2)c2ncc(Nc3n[nH]c4cccnc34)cc12 [Example 254, 1-cyclopentyl-3-methyl-N-(1H-pyrazolo[4,3-b]pyridin-3-yl)pyrazolo[3,4-b]pyridin-5-amine]
9 | > 10000 | Cc1cc(Cn2ncc3ncc(Nc4n[nH]c5cccnc45)cc32)no1 [Example 146, N-(1-((5-methylisoxazol-3-yl)methyl)-1H-pyrazolo[4,3-b]pyridin-6-yl)-1H-pyrazolo[4,3-b]pyridin-3-amine]
10 | 4180 | Cc1cncc(-c2nn(C)c3cc(Nc4n[nH]c5cccnc45)ccc23)c1 [Example 178, N-(1-methyl-3-(5-methylpyridin-3-yl)-1H-indazol-6-yl)-1H-pyrazolo[4,3-b]pyridin-3-amine]
11 | 467 | Cn1nc(C#N)c2ccc(Nc3n[nH]c4cccnc34)cc21 [Example 177, 1-methyl-6-(1H-pyrazolo[4,3-b]pyridin-3-ylamino)indazole-3-carbonitrile]
12 | > 10000 | c1nc2cnn(CC3CCC3)c2cc1Nc1n[nH]c2c1CCCC2 [Example 150, 1-(cyclobutylmethyl)-N-(4,5,6,7-tetrahydro-1H-indazol-3-yl)-1H-pyrazolo[4,3-b]pyridin-6-amine]
13 | 455 | Clc1n[nH]c2ccc(Nc3n[nH]c4cccnc34)cc12 [Example 140, N-(3-chloro-1H-indazol-5-yl)-1H-pyrazolo[4,3-b]pyridin-3-amine]
14 | 170 | Cc1nn(CCC(C)C)c2ncc(Nc3n[nH]c4cccnc34)cc12 [Example 154, 1-isopentyl-3-methyl-N-(1H-pyrazolo[4,3-b]pyridin-3-yl)pyrazolo[3,4-b]pyridin-5-amine]
15 | 1880 | Cn1nc(S(C)(=O)=O)c2ccc(Nc3n[nH]c4cccnc34)cc21 [Example 186, N-(1-methyl-3-(methylsulfonyl)-1H-indazol-6-yl)-1H-pyrazolo[4,3-b]pyridin-3-amine]
16 | 96 | Cc1nn(CC(F)(F)F)c2ccc(Nc3n[nH]c4cccnc34)cc12 [Example 116, N-(3-methyl-1-(2,2,2-trifluoroethyl)-1H-indazol-5-yl)-1H-pyrazolo[4,3-b]pyridin-3-amine]
17 | 57 | c1cnc2c(Nc3ccc4c(cnn4CC4CCC4)c3)n[nH]c2n1 [Example 85, N-(1-(cyclobutylmethyl)-1H-indazol-5-yl)-1H-pyrazolo[3,4-b]pyrazin-3-amine]
18 | 764 | CC(=O)c1nn(C)c2cc(Nc3n[nH]c4cccnc34)ccc12 [Example 21, 1-(6-((1H-pyrazolo[4,3-b]pyridin-3-yl)amino)-1-methyl-1H-indazol-3-yl)ethan-1-one]
19 | 3700 | Cc1nn(C2CCOCC2)c2ncc(Nc3n[nH]c4cccnc34)cc12 [Example 259, 3-methyl-N-(1H-pyrazolo[4,3-b]pyridin-3-yl)-1-tetrahydropyran-4-yl-pyrazolo[3,4-b]pyridin-5-amine]
20 | 310 | Cc1cc(Cn2nc(Cl)c3cc(Nc4n[nH]c5cccnc45)ccc32)on1 [Example 277, N-(3-chloro-1-((3-methylisoxazol-5-yl)methyl)-1H-indazol-5-yl)-1H-pyrazolo[4,3-b]pyridin-3-amine]
21 | 29 | Cn1ncc2c(Cl)cc(Nc3n[nH]c4cccnc34)cc21 [Example 2, N-(4-chloro-1-methyl-1H-indazol-6-yl)-1H-pyrazolo[4,3-b]pyridin-3-amine]

Row | EC50 [nM] | SMILES
22 | 765 | Cn1nc(N2CC(C)(C3CC3)CC2=O)c2ccc(Nc3n[nH]c4cccnc34)cc21 (stereo not drawn) [Example 39, 1-(6-((1H-pyrazolo[4,3-b]pyridin-3-yl)amino)-1-methyl-1H-indazol-3-yl)-4-cyclopropyl-4-methylpyrrolidin-2-one]
23 | 315 | Cn1cc2cc(Nc3n[nH]c4cccnc34)ccc2n1 [Example 56, N-(2-methyl-2H-indazol-5-yl)-1H-pyrazolo[4,3-b]pyridin-3-amine]
24 | 185 | Cn1nc(OC2CCS(=O)(=O)CC2)c2ccc(Nc3n[nH]c4cccnc34)cc21 [Example 192, N-[3-(1,1-dioxothian-4-yl)oxy-1-methyl-indazol-6-yl]-1H-pyrazolo[4,3-b]pyridin-3-amine]
25 | > 10000 | Clc1nn(C2CCC2)c2ccc(Nc3n[nH]c4cccnc34)cc12 [Example 276, N-(3-chloro-1-cyclobutyl-1H-indazol-5-yl)-1H-pyrazolo[4,3-b]pyridin-3-amine]
26 | > 10000 | c1cc2c(cnn2CC2CCC2)cc1Nc1n[nH]c2c1CCCC2 [Example 81, 1-(cyclobutylmethyl)-N-(4,5,6,7-tetrahydro-1H-indazol-3-yl)-1H-indazol-5-amine]
27 | 870 | Cc1cc(Cn2nc3ccc(Nc4n[nH]c5cccnc45)cc3c2C)no1 [Example 70, N-(3-methyl-2-((5-methylisoxazol-3-yl)methyl)-2H-indazol-5-yl)-1H-pyrazolo[4,3-b]pyridin-3-amine]
28 | 867 | COC(=O)Cn1nc(C)c2cc(Nc3n[nH]c4cccnc34)ccc21 [Example 118, methyl 2-(5-((1H-pyrazolo[4,3-b]pyridin-3-yl)amino)-3-methyl-1H-indazol-1-yl)acetate]
29 | 147 | C=C(c1nn(C)c2cc(Nc3n[nH]c4cccnc34)ccc12)C(F)(F)F [Example 40, N-(1-methyl-3-(3,3,3-trifluoroprop-1-en-2-yl)-1H-indazol-6-yl)-1H-pyrazolo[4,3-b]pyridin-3-amine]
30 | > 10000 | Cc1ccc(-n2nc(C)c3cc(Nc4n[nH]c5cccnc45)ccc32)cc1 [Example 93, N-(3-methyl-1-(p-tolyl)-1H-indazol-5-yl)-1H-pyrazolo[4,3-b]pyridin-3-amine]
31 | 2720 | Cn1nc(-c2ccc(=O)[nH]c2)c2ccc(Nc3n[nH]c4cccnc34)cc21 [Example 179, 5-[1-methyl-6-(1H-pyrazolo[4,3-b]pyridin-3-ylamino)indazol-3-yl]-1H-pyridin-2-one]
32 | 119 | Cn1nc(C(F)(F)F)c2cc(Nc3n[nH]c4cccnc34)ccc21 [Example 110, N-(1-methyl-3-(trifluoromethyl)-1H-indazol-5-yl)-1H-pyrazolo[4,3-b]pyridin-3-amine]
33 | 342 | Cc1nn(CC2CCC2)c2ccc(Nc3n[nH]c4ccccc34)cc12 [Example 71, N-(1-(cyclobutylmethyl)-3-methyl-1H-indazol-5-yl)-1H-indazol-3-amine]
34 | 87 | Cn1nc(OCC2CCCCO2)c2ccc(Nc3n[nH]c4cccnc34)cc21 (stereo not drawn) [Example 181, N-(1-methyl-3-((tetrahydro-2H-pyran-2-yl)methoxy)-1H-indazol-6-yl)-1H-pyrazolo[4,3-b]pyridin-3-amine]
35 | > 10000 | Cc1cc(Cn2ncc3ncc(Nc4n[nH]c5ccccc45)cc32)no1 [Example 26, N-(1H-indazol-3-yl)-1-((5-methylisoxazol-3-yl)methyl)-1H-pyrazolo[4,3-b]pyridin-6-amine]
36 | 1260 | Cn1ncc2ncc(Nc3n[nH]c4cccnc34)cc21 [Example 147, N-(1-methyl-1H-pyrazolo[4,3-b]pyridin-6-yl)-1H-pyrazolo[4,3-b]pyridin-3-amine]
37 | 413 | CC(C)n1ncc2cc(Nc3n[nH]c4nccnc34)cnc21 [Example 153, N-(1-isopropyl-1H-pyrazolo[3,4-b]pyridin-5-yl)-1H-pyrazolo[3,4-b]pyrazin-3-amine]
38 | 78 | Cc1nn(C)c2cc(Nc3n[nH]c4cccnc34)ccc12 [Example 15, N-(1,3-dimethyl-1H-indazol-6-yl)-1H-pyrazolo[4,3-b]pyridin-3-amine]
39 | 136 | Cc1cc(Cn2ncc3cc(Nc4n[nH]c5cccnc45)cc(Cl)c32)no1 [Example 82, N-(7-chloro-1-((5-methylisoxazol-3-yl)methyl)-1H-indazol-5-yl)-1H-pyrazolo[4,3-b]pyridin-3-amine]
40 | 330 | Cc1nn(CCN2CCOCC2)c2ccc(Nc3n[nH]c4cccnc34)cc12 [Example 132, N-(3-methyl-1-(2-morpholinoethyl)-1H-indazol-5-yl)-1H-pyrazolo[4,3-b]pyridin-3-amine]
41 | 1230 | Cn1nc(C2CC2)c2ccc(Nc3n[nH]c4ccc(F)cc34)cc21 [Example 7, N-(3-cyclopropyl-1-methyl-1H-indazol-6-yl)-5-fluoro-1H-indazol-3-amine]
42 | 790 | CC(C)n1ncc2cc(Nc3n[nH]c4nccnc34)cc(Cl)c21 [Example 60, N-(7-chloro-1-isopropyl-1H-indazol-5-yl)-1H-pyrazolo[3,4-b]pyrazin-3-amine]

Source: patent US10526323B2, “Indazole and azaindazole substituted compounds as mGluR4 allosteric potentiators, compositions, and methods of treating neurological dysfunction” (Vanderbilt University, priority 2015, dated 2020)
